The test system of this assay is SD rat with neuropathic pain model induced by spared nerve injury (SNI). The experiment in a line: Neuropathic pain model induced by spared nerve injury. It counts as in vivo. The following applies: SNI SD rats, po BID, 60 mg/kg/day, 20 days.

From publication PMC9072249 (Acta Pharmaceutica Sinica. B, 2021) come the findings set out here.

On to `NCC1(CC(=O)O)CCCCC1` [gabapentin], for which the “course of efficacy over the study” value is on record as “gradually reduced”.
